System: Pyrenophora teres
Test: activity against net blotch of barley caused by Pyrenophora teres, 5 day protective application
Assay type: in vivo, Pyrenophora [syn. Drechslera] teres on barley seedlings
Details: individual active compound, untreated control 90% infection
Procedure: The active compounds, separately or jointly, were prepared as a stock solution comprising 25 mg of active compound which was made up to 10 ml using a mixture of acetone and/or DMSO and the emulsifier Uniperol® EL (wetting agent having an emulsifying and dispersing action based on ethoxylated alkylphenols) in a ratio by volume of solvent/emulsifier of 99:1. The mixture was then made up to 100 ml with water. This stock solution was diluted with the solvent/emulsifier/water mixture described to give the concentration of active compound stated below. Alternatively, the active compounds were employed as a commercial finished formulation and diluted with water to the stated concentration of active compound.
Use example—activity against net blotch of barley caused by Pyrenophora teres, 5 day protective application.
Leaves of potted barley seedlings were sprayed to runoff point with an aqueous suspension having the concentration of active compound stated below. 5 days after the application, the test plants were inoculated with an aqueous spore suspension of Pyrenophora [syn. Drechslera] teres, the net blotch pathogen. The test plants were then placed in a greenhouse at temperatures between 20 and 24° C. and 95 to 100% relative atmospheric humidity. After 6 days, the extent of the development of the disease was determined visually in % infection of the total leaf area.
The visually determined percentages of infected leaf areas were converted into efficacies in % of the untreated control:
The efficacy (E) is calculated as follows using Abbot's formula:
E=(1−α/β)·100 • α corresponds to the fungal infection of the treated plants in % and • β corresponds to the fungal infection of the untreated (control) plants in %
An efficacy of 0 means that the infection level of the treated plants corresponds to that of the untreated control plants; an efficacy of 100 means that the treated plants were not infected.
The expected efficacies of mixtures of active compounds were determined using Colby's formula (Colby, S. R. “Calculating synergistic and antagonistic responses of herbicide combinations”, Weeds, 15, 20-22, 1967) and compared with the observed efficacies.
E=x+y−x·y/100 • E expected efficacy, expressed in % of the untreated control, when the using the mixture of the active compounds A and B at the concentrations a and b • x efficacy, expressed in % of the untreated control, when using the active compound A at the concentration a • y efficacy, expressed in % of the untreated control, when using the active compound B at the concentration b

SMILES | Efficacy in % of the untreated control (0.25 ppm in the spray liquor) [%] | Efficacy in % of the untreated control (1 ppm in the spray liquor) [%] | Efficacy in % of the untreated control (4 ppm in the spray liquor) [%]
CC1CCN(c2c(-c3c(F)cc(F)cc3F)c(Cl)nc3ncnn23)CC1 [I, 5-chloro-7-(4-methylpiperidin-1-yl)-6-(2,4,6-trifluorophenyl)[1,2,4]triazolo[1,5-a]pyrimidine] | 0 | 0 | 33
CC(C)CC(C)c1sccc1NC(=O)c1cn(C)nc1C(F)(F)F (stereo not drawn) [IIA.11, penthiopyrad] | 0 | 33 | 56
